Experimental data reported in PubChem BioAssay (NCI).
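Interpolation was linear, between the two tested concentrations surrounding the appropriate level; five concentrations were tested over 48 hours in 96-well plates. At the GI50, growth is halved. TGI is the concentration that stops growth completely.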

How the values were obtained:
Experiment in all cases: inhibition of tumour cell growth, NCI panel, 48 h
[1] = test system: CAKI-1 renal
[2] = test system: DLD-1 colon
[3] = test system: DMS 114 small cell lung
[4] = test system: DMS 273 small cell lung
[5] = test system: HOP-18 NSCLC
[6] = test system: IGROV1 ovarian
[7] = test system: KM20L2 colon
[8] = test system: LXFL 529 NSCLC
[9] = test system: M19-MEL melanoma
[10] = test system: OVCAR-8 ovarian
[11] = test system: RXF-631 renal
[12] = test system: SF-295 CNS
[13] = test system: SNB-19 CNS
[14] = test system: SNB-78 CNS
[15] = test system: U251 CNS
[16] = test system: XF 498 CNS

SMILES: CCN(CC)Cc1cc(Nc2c3ccccc3nc3c2[nH]c2ccccc23)ccc1O
- TGI [1]: 4.2 µM
- TGI [2]: 5.7 µM
- TGI [3]: 3.14 µM
- TGI [4]: 1.84 µM
- TGI [5]: 5.39 µM
- TGI [6]: 4.49 µM
- TGI [7]: 2.41 µM
- TGI [8]: 3.02 µM
- TGI [9]: 3.04 µM
- TGI [10]: 3.11 µM
- TGI [11]: 4.37 µM
- TGI [12]: 2.83 µM
- TGI [13]: 5.03 µM
- TGI [14]: 4.87 µM
- TGI [15]: 2.79 µM
- TGI [16]: 3.18 µM

SMILES: O=C1CCC2SC1CCC2=O
- TGI [1]: > 100 µM
- TGI [6]: > 100 µM
- TGI [10]: > 100 µM
- TGI [12]: > 100 µM
- TGI [13]: > 100 µM
- TGI [15]: > 100 µM

SMILES: CCOC(=O)c1ccc(C(=O)/C(C#N)=C2\CCCN2)[nH]1
- TGI [1]: > 100 µM
- TGI [6]: > 100 µM
- TGI [10]: > 100 µM
- TGI [12]: > 100 µM
- TGI [13]: > 100 µM
- TGI [15]: > 100 µM

SMILES: COc1ccc(C2C(Cl)C(=O)N2NC(=O)Cc2ccccc2)cc1 (centres undefined)
- TGI [1]: > 100 µM
- TGI [2]: > 100 µM
- TGI [4]: > 100 µM
- TGI [5]: > 100 µM
- TGI [6]: > 100 µM
- TGI [7]: > 100 µM
- TGI [8]: > 100 µM
- TGI [9]: > 100 µM
- TGI [10]: > 100 µM
- TGI [12]: > 100 µM
- TGI [13]: > 100 µM
- TGI [14]: > 100 µM
- TGI [15]: > 100 µM
- TGI [16]: > 100 µM

SMILES: CCOC(=O)c1c(NC(=O)Nc2ccccc2)c(C(N)=O)c2n1CCCCC2
- TGI [1]: > 100 µM
- TGI [6]: > 100 µM
- TGI [10]: > 100 µM
- TGI [12]: > 100 µM
- TGI [13]: > 100 µM
- TGI [15]: > 100 µM

SMILES: CCCNC(=S)/N=C\c1c(O)c2ccccc2oc1=O
- TGI [1]: > 100 µM
- TGI [6]: > 100 µM
- TGI [10]: > 100 µM
- TGI [12]: > 100 µM
- TGI [13]: > 100 µM
- TGI [15]: > 100 µM

SMILES: CN(C)CCO/N=C1/C=C2CC[C@H]3[C@@H]4CC[C@H](O)[C@@]4(C)CC[C@@H]3[C@@]2(C)CC1
- TGI [1]: > 66.8 µM
- TGI [6]: 25.2 µM
- TGI [10]: 45.5 µM
- TGI [12]: 32.4 µM
- TGI [13]: > 100 µM
- TGI [15]: 27.5 µM

SMILES: CC(=O)O[C@H]1C(=O)[C@@]2(C)[C@H]([C@H](OC(=O)C3CCCCC3)[C@]3(O)C[C@H](OC(=O)[C@H](O)[C@@H](NC(=O)C4CCCCC4)C4CCCCC4)C(C)=C1C3(C)C)[C@]1(OC(C)=O)CO[C@@H]1C[C@@H]2O
- TGI [1]: 8.02 µM
- TGI [6]: 6.77 µM
- TGI [10]: 5.12 µM
- TGI [12]: 0.176 µM
- TGI [13]: 13.3 µM
- TGI [15]: 1.66 µM

SMILES: CN(C)CCNc1ccc2c(=O)n(CCN(C)C)c(=O)n3c4ccc(N)cc4c(=O)c1c23
- TGI [1]: 4.76 µM
- TGI [6]: 0.534 µM
- TGI [10]: 0.722 µM
- TGI [12]: 1.07 µM
- TGI [13]: 0.788 µM
- TGI [15]: 0.988 µM

SMILES: CCOC(=O)CCC(NC(=O)c1ccc(Nc2nc3cc(C(F)(F)F)ccc3nc2-c2ccccc2)cc1)C(=O)OCC (centres undefined)
- TGI [1]: > 100 µM
- TGI [6]: > 100 µM
- TGI [10]: > 100 µM
- TGI [12]: > 100 µM
- TGI [13]: > 100 µM
- TGI [15]: > 100 µM

SMILES: O=c1c2cccnc2nc2ccc3c[nH][nH]c3c12
- TGI [1]: > 10 µM
- TGI [6]: > 10 µM
- TGI [10]: > 10 µM
- TGI [12]: > 10 µM
- TGI [13]: > 10 µM
- TGI [15]: > 10 µM

SMILES: COc1cc2[nH]c(-c3cccc(N(C)C)c3)cc(=O)c2cc1OC
- TGI [2]: > 100 µM
- TGI [3]: > 49.1 µM
- TGI [4]: > 100 µM
- TGI [5]: 9.35 µM
- TGI [6]: > 100 µM
- TGI [7]: 5.46 µM
- TGI [8]: > 100 µM
- TGI [9]: > 100 µM
- TGI [10]: > 100 µM
- TGI [12]: > 21.4 µM
- TGI [13]: > 100 µM
- TGI [14]: > 100 µM
- TGI [16]: > 100 µM

SMILES: CC(=O)c1ccc2c(c1)oc(=O)n2CCN1CCCCC1
- TGI [1]: > 100 µM
- TGI [6]: > 100 µM
- TGI [10]: > 100 µM
- TGI [12]: > 100 µM
- TGI [13]: > 100 µM
- TGI [15]: > 100 µM

SMILES: CC1=NN(C(=O)Cc2ccccc2)C(=O)/C1=C\C=C\c1ccccc1
- TGI [1]: > 100 µM
- TGI [2]: > 100 µM
- TGI [4]: > 100 µM
- TGI [5]: > 100 µM
- TGI [10]: > 100 µM
- TGI [12]: > 100 µM
- TGI [13]: > 100 µM
- TGI [14]: > 100 µM
- TGI [16]: > 100 µM

SMILES: O=C1CCCc2cc3c(cc21)CCC3C(=O)O (centres undefined)
- TGI [1]: > 100 µM
- TGI [6]: > 100 µM
- TGI [10]: > 100 µM
- TGI [12]: > 100 µM
- TGI [13]: > 100 µM
- TGI [15]: > 100 µM

SMILES: Cc1ccc(S(=O)(=O)NNC(=S)Nc2cccc3ccccc23)cc1
- TGI [1]: > 100 µM
- TGI [6]: > 100 µM
- TGI [10]: > 100 µM
- TGI [12]: > 100 µM
- TGI [13]: > 100 µM
- TGI [15]: > 100 µM

SMILES: [N-]=[N+]=NC1C(Br)C(=O)NC(=O)N1[C@H]1C[C@H](O)[C@@H](CO)O1 (some centres undefined)
- GI50 [1]: 66.3 µM
- TGI [1]: > 100 µM
- TGI [2]: > 100 µM
- GI50 [3]: 90.9 µM
- TGI [3]: > 100 µM
- TGI [4]: > 100 µM
- TGI [6]: > 100 µM
- TGI [7]: > 100 µM
- TGI [8]: > 100 µM
- GI50 [9]: 91.5 µM
- TGI [9]: > 100 µM
- TGI [10]: > 100 µM
- TGI [12]: > 100 µM
- TGI [13]: > 100 µM
- TGI [14]: > 100 µM
- TGI [15]: > 100 µM
- TGI [16]: > 100 µM

SMILES: CCCCCc1c2nc(c(CCCCC)c3ccc([nH]3)c(CCCCC)c3ccc([nH]3)c(CCCCC)c3nc1C=C3)C=C2
- TGI [1]: > 100 µM
- TGI [6]: > 100 µM
- TGI [10]: > 100 µM
- TGI [12]: > 100 µM
- TGI [13]: > 100 µM
- TGI [15]: > 100 µM

SMILES: CCN(CC)CCS(=O)c1c2cc(OC)ccc2nc2ccc(OC)cc12 (centres undefined)
- TGI [1]: 23.9 µM
- TGI [6]: 8.52 µM
- TGI [10]: 21 µM
- TGI [12]: 44.2 µM
- TGI [13]: 72 µM
- TGI [15]: > 60.6 µM

SMILES: O=S1(=O)CCN(Cc2ccccc2)/C1=N\S(=O)(=O)c1ccc(Cl)cc1
- TGI [1]: 33.2 µM
- TGI [6]: 32.5 µM
- TGI [10]: 32.9 µM
- TGI [12]: > 100 µM
- TGI [13]: > 100 µM
- TGI [15]: 33.5 µM
